Among the test systems are ACHN renal; HOP-62 NSCLC; HOP-92 NSCLC; MALME-3M melanoma; NCI-H23 lung; NCI/ADR-RES ovarian; OVCAR-4 ovarian; SF-539 CNS; SNB-19 CNS; U251 CNS.
Common to all, as to test: inhibition of tumour cell growth, NCI panel, 48 h

Values joined by “and” are separate entries in the source; they are usually repeats but may differ in a detail not shown here. Identical values can stand only once.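 Test compounds were applied to cells in 96-well plates for 48 hours at 5 doses. Here, GI50 denotes the concentration required for 50% inhibition of growth. TGI is the concentration that stops growth completely.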

Consider `Cc1cc(Cl)ccc1Nc1nc(C(F)(F)F)ccc1C(=O)N/N=C/c1ccc(Cl)cc1`, for which the GI50 is 2.48 µM in the test with ACHN renal; 2.33 µM with HOP-62 NSCLC; 1.94 µM in the test with HOP-92 NSCLC; 2.02 µM in the test on MALME-3M melanoma; 1.85 µM with NCI-H23 lung; 2.16 µM with NCI/ADR-RES ovarian. In addition, the GI50 was 1.46 µM in the test on OVCAR-4 ovarian, 1.7 µM with SF-539 CNS, 2.6 µM in the test on SNB-19 CNS and 2.07 µM in the test with U251 CNS. In addition, the TGI turned out to be 8.71 µM in the test on ACHN renal; 9.22 µM with HOP-62 NSCLC; 6.85 µM in the test with HOP-92 NSCLC; 5.51 µM in the test on MALME-3M melanoma; 6.48 µM in the test on NCI-H23 lung; 6.38 µM in the test with NCI/ADR-RES ovarian. The figures for the TGI with OVCAR-4 ovarian, in the test with SF-539 CNS and in the test with SNB-19 CNS were 21.2 µM, 3.96 µM and 12.4 µM, respectively.

`COc1ccc2c(c1)nnn1c3ncccc3c(N=O)c21`: the GI50 in the test on ACHN renal is 0.374 µM; with HOP-62 NSCLC, 7.51 µM; in the test with HOP-92 NSCLC it was 0.0424 µM and 0.117 µM; in the test on MALME-3M melanoma it was 0.769 µM and 1.5 µM; in the test on NCI-H23 lung it was 5.17 µM and 1.84 µM; with NCI/ADR-RES ovarian, 1.42 µM and 1.28 µM. Besides, the GI50 in the test on OVCAR-4 ovarian is 1.29 µM and 3.11 µM; with SF-539 CNS, 0.467 µM and 1.51 µM; in the test with SNB-19 CNS it was 6.28 µM and 11.8 µM; in the test with U251 CNS it was 0.72 µM and 1.18 µM. Further, the TGI was more than 100 µM in the test on ACHN renal; 21.5 µM in the test on HOP-62 NSCLC; 5.77 µM and 5.63 µM in the test on MALME-3M melanoma; 13.5 µM and 6.43 µM in the test with NCI-H23 lung; 10.6 µM and 12.6 µM in the test with NCI/ADR-RES ovarian; 16.6 µM and > 100 µM in the test on OVCAR-4 ovarian. In addition, the TGI in the test on SF-539 CNS is 1.24 µM and 3.18 µM; in the test with SNB-19 CNS it was 16.2 µM and 34.2 µM; in the test with U251 CNS it was 31.3 µM and 12.9 µM.

Turning to `O=C(O)C1OC1(c1cccc(Cl)c1)c1ccccc1Cl` (stereo not drawn), the TGI was more than 100 µM in the test on ACHN renal; 61.3 µM in the test on HOP-62 NSCLC; 94.4 µM with HOP-92 NSCLC; 49.9 µM with MALME-3M melanoma; 54.6 µM with NCI-H23 lung; 47.3 µM in the test on NCI/ADR-RES ovarian. The TGI was more than 100 µM in the test with OVCAR-4 ovarian, 43.7 µM in the test with SF-539 CNS, more than 100 µM in the test on SNB-19 CNS and 25.4 µM in the test on U251 CNS.

For `COc1cc2oc3cc(=O)cc4oc(-c5ccccc5)cc(c2c2c1CCC(c1ccccc1)O2)c43` (stereo not drawn), the TGI was 61.9 µM in the test with ACHN renal; more than 100 µM in the test on HOP-62 NSCLC; more than 100 µM with HOP-92 NSCLC; more than 100 µM in the test with MALME-3M melanoma; more than 100 µM in the test with NCI-H23 lung; more than 100 µM with NCI/ADR-RES ovarian. Also, the TGI in the test with OVCAR-4 ovarian, with SF-539 CNS, in the test with SNB-19 CNS and in the test on U251 CNS was more than 100 µM each time.

Turning to `CCN(Cc1ccc(F)cc1)c1ccc(CO)c(F)c1`, the GI50 in the test with ACHN renal was 14.9 µM; in the test on HOP-62 NSCLC, 15.2 µM; with HOP-92 NSCLC, 9.52 µM; in the test on MALME-3M melanoma, 18.7 µM; with NCI-H23 lung it was 17.5 µM; in the test on NCI/ADR-RES ovarian, 18 µM. The GI50 is 3.93 µM in the test on OVCAR-4 ovarian, 18.8 µM with SF-539 CNS, 27.3 µM with SNB-19 CNS and 12.5 µM in the test on U251 CNS. The TGI with ACHN renal is more than 100 µM; in the test on HOP-62 NSCLC it was more than 100 µM; with HOP-92 NSCLC it was 37.9 µM; with MALME-3M melanoma, 43.9 µM; in the test on NCI-H23 lung, more than 94.6 µM; in the test with NCI/ADR-RES ovarian, 68.7 µM. Besides, the TGI in the test with OVCAR-4 ovarian was 27.6 µM; in the test with SF-539 CNS, 56.5 µM; in the test with SNB-19 CNS, more than 100 µM; with U251 CNS it was more than 63 µM.

For `COC1=CC(c2ccc[nH]2)=N/C1=C\c1[nH]c(C)c(C(=O)CCCCC(=O)NC(C)(C)C)c1C`, the GI50 in the test on ACHN renal is 1.7 µM; in the test with HOP-62 NSCLC it was 1.74 µM; in the test with HOP-92 NSCLC it was 1.54 µM; with MALME-3M melanoma, 1.47 µM; in the test with NCI-H23 lung it was 1.57 µM; in the test with NCI/ADR-RES ovarian, 1.61 µM. Also, the GI50 is 1.78 µM with OVCAR-4 ovarian, 3.27 µM with SF-539 CNS, 3.01 µM in the test on SNB-19 CNS and 1.29 µM in the test on U251 CNS. Also, the TGI was found to be 3.7 µM in the test with ACHN renal; 5.02 µM in the test with HOP-62 NSCLC; 4.97 µM in the test on HOP-92 NSCLC; 3.12 µM in the test on MALME-3M melanoma; 4.46 µM in the test with NCI-H23 lung; 3.21 µM in the test with NCI/ADR-RES ovarian. The TGI was 6.29 µM in the test on OVCAR-4 ovarian, 9.94 µM in the test with SF-539 CNS, 18.7 µM in the test on SNB-19 CNS and 2.57 µM in the test with U251 CNS.

As to `Nc1nc(N)c2nc(CNc3ccc(C(=O)NC(CC(=O)O)C(=O)O)cc3)cnc2n1` (stereo not drawn), the GI50 is 2.45 µM in the test with ACHN renal; 6.4 µM in the test on HOP-62 NSCLC; more than 100 µM with HOP-92 NSCLC; more than 100 µM in the test on MALME-3M melanoma; 2.38 µM in the test on NCI-H23 lung; 0.638 µM with NCI/ADR-RES ovarian. The GI50 in the test on OVCAR-4 ovarian is more than 100 µM; in the test with SF-539 CNS it was 3.93 µM; in the test on SNB-19 CNS, 8.39 µM; with U251 CNS, 1.97 µM. The TGI with ACHN renal, with HOP-62 NSCLC, in the test with HOP-92 NSCLC, in the test with MALME-3M melanoma, in the test on NCI-H23 lung and with NCI/ADR-RES ovarian was more than 100 µM throughout. Moreover, the TGI in the test on OVCAR-4 ovarian, in the test on SF-539 CNS, with SNB-19 CNS and in the test with U251 CNS was more than 100 µM in each case.

In the case of `COc1ccc(C2CC(C)(O)Oc3cc4c(cc32)OCO4)cc1` (stereo not drawn), the TGI was more than 100 µM in the test with ACHN renal; more than 100 µM with HOP-62 NSCLC; 69.5 µM in the test with HOP-92 NSCLC; more than 100 µM in the test on MALME-3M melanoma; more than 100 µM in the test on NCI-H23 lung; more than 78.2 µM in the test with NCI/ADR-RES ovarian. The TGI with OVCAR-4 ovarian, in the test with SF-539 CNS, in the test on SNB-19 CNS and in the test with U251 CNS was more than 100 µM each time.

For the compound `O=C(Cn1c(=O)c(-c2ccccc2)nc2ccccc21)Nc1ccc(F)cc1`, the GI50 with ACHN renal is 42.6 µM; with HOP-62 NSCLC, 49.8 µM; in the test with HOP-92 NSCLC it was 22.5 µM; in the test with MALME-3M melanoma it was 43 µM; with NCI-H23 lung it was more than 100 µM; in the test with NCI/ADR-RES ovarian, more than 100 µM. Further, the GI50 with OVCAR-4 ovarian was 47.3 µM; with SF-539 CNS it was 4.03 µM; with SNB-19 CNS, 41.8 µM; in the test with U251 CNS, 48 µM. Besides, the TGI was more than 100 µM in the test with ACHN renal; more than 100 µM in the test on HOP-62 NSCLC; 86.2 µM in the test on HOP-92 NSCLC; more than 100 µM in the test on MALME-3M melanoma; more than 100 µM with NCI-H23 lung; more than 100 µM in the test on NCI/ADR-RES ovarian. The TGI is more than 100 µM in the test on OVCAR-4 ovarian, 28.7 µM with SF-539 CNS, more than 100 µM in the test with SNB-19 CNS and more than 100 µM with U251 CNS.

For the origin of these results see PubChem BioAssay (NCI).
